Literature values as cited in patent publication US11608532B2, “Precision medicine for treating and preventing suicidality” (Indiana University Research and Technology Corporation, priority 2017, dated 2023).
Read-outs that look alike come from different tables or passages of the source.

Tested on: individual top biomarkers for suicidality
Conditions: for TNF modulated by drug in opposite direction to suicide: direction of change in suicidality (I) DE/1, (I) AP/1
[1] = A. Top Universal Biomarkers, direction of change in suicidality (D), AP/1
[2] = biomarker HTR2A (5-hydroxytryptamine (serotonin) receptor 2A, G protein-coupled)
[3] = C. Top Biomarkers in Females, direction of change in suicidality I, DE/2
[4] = E. Top Biomarkers in Depression, direction of change in suicidality (I), DE/1
[5] = G. Top Biomarkers in Males with Depression, direction of change in suicidality (D), AP/2
[6] = A. Top Universal Biomarkers, direction of change in suicidality (I), DE/2
[7] = D. Top Biomarkers in Bipolar Disorder, direction of change in suicidality (I), DE/2
[8] = F. Top Biomarkers in Males with Bipolar Disorder, direction of change in suicidality (I), DE/2
[9] = B. Top Biomarkers in Males, direction of change in suicidality I, DE/2
[10] = D. Top Biomarkers in Bipolar Disorder, direction of change in suicidality (D), DE/1
[11] = D. Top Biomarkers in Bipolar Disorder

For O=C1CCc2ccc(OCCCCN3CCN(c4cccc(Cl)c4Cl)CC3)cc2N1 [Aripiprazole], the “IFNG modulated by drug in opposite direction to suicide” value [1] is listed as “Aripiprazole” and the “Step 6 Drugs that Modulate the Biomarker in Opposite Direction to Suicide” value (from here on “Step 6 Drugs that Modulate the Biomarker”) [2] is listed as “Aripiprazole”.
For CNCCC(Oc1ccc(C(F)(F)F)cc1)c1ccccc1 (stereo not drawn) [Fluoxetine], the “BDNF modulated by drug in opposite direction to suicide” value (shortened to “BDNF modulated by drug”) [3] is listed as “Fluoxetine”, the “ACP1 modulated by drug in opposite direction to suicide” value (E. Top Biomarkers in Depression, direction of change in suicidality (D), AP/1) is listed as “Fluoxetine” and the “BDNF modulated by drug” value [4] is listed as “Fluoxetine”. For the same compound, the “JUN modulated by drug in opposite direction to suicide” value [4] was “Fluoxetine” and the “NTRK3 modulated by drug in opposite direction to suicide” value (“NTRK3 modulated by drug” below) [5] was “Fluoxetine”.
For COc1cc(C(C)=O)ccc1OCCCN1CCC(c2noc3cc(F)ccc23)CC1 [Iloperidone], the “HTR2A modulated by drug in opposite direction to suicide” value (shortened to “HTR2A modulated by drug”) [6] is given as “Iloperidone,”, the “HTR2A modulated by drug” value [3] is given as “Iloperidone,” and the “HTR2A modulated by drug” value [7] is given as “Iloperidone,”. The “HTR2A modulated by drug” value [8] was “Iloperidone,”.
For C/C=C(/C)C(=O)O[C@H]1C(C)=C[C@]23C(=O)[C@@H](C=C(CO)[C@@H](O)[C@]12O)[C@H]1[C@@H](C[C@H]3C)C1(C)C [Ingenol mebutate], the “Drugs that modulate the biomarker PRKCB” value (biomarker PRKCB (protein kinase C, beta), Table 20 CFE drug-evidence) is given as “Ingenol mebutate” and the “Step 6 Drugs that Modulate the Biomarker” value (biomarker PRKCI (protein kinase C, iota)) is given as “Ingenol”.
For CC#C[C@]1(O)CC[C@H]2[C@@H]3CCC4=CC(=O)CCC4=C3[C@@H](c3ccc(N(C)C)cc3)C[C@@]21C [Mifepristone], the “BDNF modulated by drug” value [3] is listed as “Mifepristone” and the “BDNF modulated by drug” value [4] is listed as “Mifepristone”.
In the case of CN1CCN2c3ncccc3Cc3ccccc3C2C1 (stereo not drawn) [Mirtazapine], the “Step 6 Drugs that Modulate the Biomarker” value [2] is listed as “Mirtazapine”.
In the case of CCc1nn(CCCN2CCN(c3cccc(Cl)c3)CC2)c(=O)n1CCOc1ccccc1 [Nefazodone], the “Step 6 Drugs that Modulate the Biomarker” value [2] is listed as “Nefazodone”.
For CC(=O)O[C@H]1C(=O)[C@@]2(C)[C@H]([C@H](OC(=O)c3ccccc3)[C@]3(O)C[C@H](OC(=O)[C@H](O)[C@@H](NC(=O)c4ccccc4)c4ccccc4)C(C)=C1C3(C)C)[C@]1(OC(C)=O)CO[C@@H]1C[C@@H]2O [Paclitaxel], the “Step 6 Drugs that Modulate the Biomarker” value (biomarker BCL2 (B-cell CLL/lymphoma 2)) is given as “Paclitaxel”.
In the case of Fc1ccc([C@@H]2CCNC[C@H]2COc2ccc3c(c2)OCO3)cc1 [Paroxetine], the “CCL28 modulated by drug in opposite direction to suicide” value (A. Top Universal Biomarkers, direction of change in suicidality (D), AP/4) is listed as “Paroxetine”.
For OCCOCCN1CCN(C2=Nc3ccccc3Sc3ccccc32)CC1 [Quetiapine], the “IFNG modulated by drug in opposite direction to suicide” value [1] is given as “Quetiapine,” and the “Step 6 Drugs that Modulate the Biomarker” value [2] is given as “Quetiapine”.
For C[C@H]1Oc2c(cccc2N2CCN(CCCc3c[nH]c4ccc(F)cc34)CC2)NC1=O [SLV-314], the “SLC6A4 modulated by drug in opposite direction to suicide” value (“SLC6A4 modulated by drug” for short) [9] is listed as “SLV-314” and the “SLC6A4 modulated by drug” value [10] is listed as “SLV-314”.
In the case of CN[C@H]1CC[C@@H](c2ccc(Cl)c(Cl)c2)c2ccccc21 [Sertraline], the “TNF modulated by drug in opposite direction to suicide” value [11] is given as “Sertraline”.
For COc1ccc(C(CN(C)C)C2(O)CCCCC2)cc1 (stereo not drawn) [Venlafaxine], the “TNF modulated by drug in opposite direction to suicide” value [11] is listed as “Venlafaxine”.
In the case of O=C1Cc2cc(CCN3CCN(c4nsc5ccccc45)CC3)c(Cl)cc2N1 [Ziprasidone], the “Step 6 Drugs that Modulate the Biomarker” value [2] is listed as “Ziprasidone”.
In the case of CN1CC2c3ccccc3Oc3ccc(Cl)cc3C2C1 (stereo not drawn) [asenapine], the “HTR2A modulated by drug” value [6] is listed as “asenapine,”, the “HTR2A modulated by drug” value [3] is listed as “asenapine,” and the “HTR2A modulated by drug” value [7] is listed as “asenapine,”. The “HTR2A modulated by drug” value [8] was “asenapine,”.
For Cc1ccc(C23CNCC2C3)cc1 (stereo not drawn) [bicifadine], the “SLC6A4 modulated by drug” value [9] is given as “bicifadine,” and the “SLC6A4 modulated by drug” value [10] is given as “bicifadine,”.
For CN(C)C(=O)N[C@H]1CC[C@H](CCN2CCN(c3cccc(Cl)c3Cl)CC2)CC1 [cariprazine], the “HTR2A modulated by drug” value [6] is listed as “cariprazine,”, the “HTR2A modulated by drug” value [3] is listed as “cariprazine,” and the “HTR2A modulated by drug” value [7] is listed as “cariprazine,”. For the same compound, the “HTR2A modulated by drug” value [8] was “cariprazine,”.
For CN1CCN(c2ccc(C(=O)Nc3n[nH]c4ccc(Cc5cc(F)cc(F)c5)cc34)c(NC3CCOCC3)c2)CC1 [entrectinib], the “NTRK3 modulated by drug” value [3] is given as “entrectinib,”, the “NTRK3 modulated by drug” value (E. Top Biomarkers in Depression, direction of change in suicidality (I) AP/2, (I) DE/1) is given as “entrectinib,” and the “NTRK3 modulated by drug” value [5] is given as “entrectinib,”.
